# Experimental data: patent publication US12617797B2, “Substituted pyrazolo [1,5-a]pyrimidines having multimodal activity against pain” (ESTEVE PHARMACEUTICALS, S.A., priority 2020, dated 2026)
# Legend:
# [1] = target: T1, Human σ1 receptor (Homo sapiens, UniProt Q99720); experiment: Human σ1 receptor radioligand assay ([3H](+)-pentazocine binding, transfected HEK-293 membranes); details: binding to σ1 receptor expressed as Ki; + also covers inhibition between 1% and 50%; read-out: σ-1 binding
# T1 construct: expressed in transfected cells; host or cells: HEK-293
# T1 sequence (Q99720 whole entry): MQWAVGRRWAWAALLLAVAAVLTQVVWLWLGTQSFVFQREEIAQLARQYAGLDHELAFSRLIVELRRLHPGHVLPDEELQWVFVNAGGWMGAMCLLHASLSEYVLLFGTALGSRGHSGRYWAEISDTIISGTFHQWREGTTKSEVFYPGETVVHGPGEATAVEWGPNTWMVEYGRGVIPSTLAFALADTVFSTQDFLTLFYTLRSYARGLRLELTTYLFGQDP
# How it was run: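 Membranes (7 μg) were incubated with 5 nM [3H](+)-pentazocine in 50 mM Tris-HCl pH 8 for 120 min at 37° C. Non-specific binding was defined with 10 μM haloperidol. Values are % inhibition at 1 or 10 μM or Ki from five concentrations, read by filtration and scintillation counting.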
# [2] = target: Human α2δ-1 subunit of Cav2.2 calcium channel (Homo sapiens, UniProt P54289); experiment: Human α2δ-1 subunit of Cav2.2 calcium channel assay ([3H]-gabapentin binding); details: binding to the α2δ-1 subunit of voltage-gated calcium channels expressed as Ki; + also covers inhibition between 1% and 50%
# Sequence of Human α2δ-1 subunit of Cav2.2 calcium channel (P54289 25-1103): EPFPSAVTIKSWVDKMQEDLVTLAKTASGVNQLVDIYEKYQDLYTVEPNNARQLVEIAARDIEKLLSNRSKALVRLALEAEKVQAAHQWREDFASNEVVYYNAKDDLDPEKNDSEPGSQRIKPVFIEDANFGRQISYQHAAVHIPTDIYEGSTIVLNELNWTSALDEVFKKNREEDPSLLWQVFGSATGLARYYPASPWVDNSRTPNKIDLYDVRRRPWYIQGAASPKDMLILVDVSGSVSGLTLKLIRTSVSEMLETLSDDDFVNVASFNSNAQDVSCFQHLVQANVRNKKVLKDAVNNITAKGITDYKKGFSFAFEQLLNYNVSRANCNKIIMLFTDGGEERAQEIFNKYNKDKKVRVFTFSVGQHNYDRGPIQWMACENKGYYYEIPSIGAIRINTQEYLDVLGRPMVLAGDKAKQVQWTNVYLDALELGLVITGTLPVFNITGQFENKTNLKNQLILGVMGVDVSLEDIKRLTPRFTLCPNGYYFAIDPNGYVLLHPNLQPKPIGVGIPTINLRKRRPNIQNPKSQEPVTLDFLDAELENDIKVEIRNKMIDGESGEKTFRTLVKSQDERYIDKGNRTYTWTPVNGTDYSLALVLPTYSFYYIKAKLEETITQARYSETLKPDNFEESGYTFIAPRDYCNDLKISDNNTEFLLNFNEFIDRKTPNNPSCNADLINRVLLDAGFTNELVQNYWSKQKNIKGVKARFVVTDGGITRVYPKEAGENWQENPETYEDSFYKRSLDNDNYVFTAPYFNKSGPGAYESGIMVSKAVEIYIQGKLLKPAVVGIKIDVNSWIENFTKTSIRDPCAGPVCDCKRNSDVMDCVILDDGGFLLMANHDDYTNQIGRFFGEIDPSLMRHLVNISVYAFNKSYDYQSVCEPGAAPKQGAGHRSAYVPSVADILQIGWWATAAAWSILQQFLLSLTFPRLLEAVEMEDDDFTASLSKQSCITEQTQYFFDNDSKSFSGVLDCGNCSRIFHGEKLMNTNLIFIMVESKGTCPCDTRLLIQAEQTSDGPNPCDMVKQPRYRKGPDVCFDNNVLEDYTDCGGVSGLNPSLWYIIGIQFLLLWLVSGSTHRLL
# How it was run: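 Membranes enriched in human α2δ-1 incubated with 15 nM [3H]-gabapentin in 10 mM Hepes-KOH pH 7.4, 60 min at 27 °C; nonspecific binding defined with 10 μM pregabalin. Filtration and scintillation counting; % inhibition at 1 or 10 μM, or Ki from five concentrations.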
Compound,Ki [1] [µM],Ki [2] [µM]
"Cc1nn2c(C3CCCN(Cc4ccc(Cl)cc4)C3)ccnc2c1CN1CCOCC1 (stereo not shown) [Example 165, 4-((7-(1-(4-Chlorobenzyl)piperidin-3-yl)-2-methylpyrazolo[1,5-a]pyrimidin-3-yl)methyl)morpholine]",0.5 to 1,> 5
"Cc1nn2c(C3CCCN(Cc4ccc(Cl)cc4)C3)ccnc2c1CN1CCS(=O)(=O)CC1 (stereo not shown) [Example 168, 4-((7-(1-(4-Chlorobenzyl)piperidin-3-yl)-2-methylpyrazolo[1,5-a]pyrimidin-3-yl)methyl)thiomorpholine 1,1-dioxide]",0.5 to 1,0.5 to 5
Cc1nn2c(C3CCCN(Cc4ccc(Cl)cc4)C3)ccnc2c1CN1CCNC(=O)C1 (stereo not shown) [Example 173],> 1,> 5
"CC(=O)N1CCN(Cc2c(C)nn3c(C4CCCN(Cc5ccc(Cl)cc5)C4)ccnc23)CC1 (stereo not shown) [Example 174, 1-(4-((7-(1-(4-Chlorobenzyl)piperidin-3-yl)-2-methylpyrazolo[1,5-a]pyrimidin-3-yl)methyl)piperazin-1-yl)ethan-1-one]",> 1,0.5 to 5
"Cc1nn2c(C3CCCN(Cc4ccc(Cl)cc4)C3)ccnc2c1CN1CCN(S(C)(=O)=O)CC1 (stereo not shown) [Example 175, 7-(1-(4-Chlorobenzyl)piperidin-3-yl)-2-methyl-3-((4-(methylsulfonyl)piperazin-1-yl)methyl)pyrazolo[1,5-a]pyrimidine]",> 1,> 5
"Cc1nn2c(C3CCCN(Cc4ccc(Cl)cc4)C3)ccnc2c1CNCCCN1CCCC1=O (stereo not shown) [Example 176, 1-(3-(((7-(1-(4-Chlorobenzyl)piperidin-3-yl)-2-methylpyrazolo[1,5-a]pyrimidin-3-yl)methyl)amino)propyl)pyrrolidin-2-one]",> 1,0.5 to 5
"Cc1nn2c(C3CCCN(Cc4ccc(Cl)cc4)C3)ccnc2c1CNCC1CCN(S(C)(=O)=O)CC1 (stereo not shown) [Example 179, 1-(7-(1-(4-Chlorobenzyl)piperidin-3-yl)-2-methylpyrazolo[1,5-a]pyrimidin-3-yl)-N-((1-(methylsulfonyl)piperidin-4-yl)methyl)methanamine]",0.5 to 1,0.5 to 5
"Cc1nn2c(C3CCCN(Cc4ccc(C#N)cc4)C3)ccnc2c1CNCC1CCOCC1 (stereo not shown) [Example 183, 4-((3-(2-Methyl-3-((((tetrahydro-2H-pyran-4-yl)methyl)amino)methyl)pyrazolo[1,5-a]pyrimidin-7-yl)piperidin-1-yl)methyl)benzonitrile]",< 0.5,> 5
"Cc1nn2c(C3CCCN(Cc4ccc(C(F)(F)F)nc4)C3)ccnc2c1CNCC1CCOCC1 (stereo not shown) [Example 184, 1-(2-Methyl-7-(1-((6-(trifluoromethyl)pyridin-3-yl)methyl)piperidin-3-yl)pyrazolo[1,5-a]pyrimidin-3-yl)-N-((tetrahydro-2H-pyran-4-yl)methyl)methanamine]",< 0.5,> 5
"Cc1nn2c(C3CCCN(CC4CCOCC4)C3)ccnc2c1CNCC1CCOCC1 (stereo not shown) [Example 185, 1-(2-Methyl-7-(1-((tetrahydro-2H-pyran-4-yl)methyl)piperidin-3-yl)pyrazolo[1,5-a]pyrimidin-3-yl)-N-((tetrahydro-2H-pyran-4-yl)methyl)methanamine]",> 1,> 5
"Cc1nn2c(C3CCCN(Cc4ccc(Cl)cc4Cl)C3)ccnc2c1CN(C)C (stereo not shown) [Example 186, 1-(7-(1-(2,4-Dichlorobenzyl)piperidin-3-yl)-2-methylpyrazolo[1,5-a]pyrimidin-3-yl)-N,N-dimethylmethanamine]",< 0.5,> 5
"CCc1nn2c(C3CCCN(Cc4ccc(Cl)cc4)C3)ccnc2c1CNCC1CCOCC1 (stereo not shown) [Example 187, 1-(7-(1-(4-Chlorobenzyl)piperidin-3-yl)-2-ethylpyrazolo[1,5-a]pyrimidin-3-yl)-N-((tetrahydro-2H-pyran-4-yl)methyl)methanamine]",< 0.5,< 0.5

# Now from value to compound:
Ki [1] [µM],Ki [2] [µM],Compound
< 0.5,0.5 to 5,"Cc1nn2c(C3CCCN(Cc4ccc(Cl)cc4)C3)ccnc2c1CNCCN1CCOCC1 (stereo not shown) [Example 166, N-((7-(1-(4-Chlorobenzyl)piperidin-3-yl)-2-methylpyrazolo[1,5-a]pyrimidin-3-yl)methyl)-2-morpholinoethan-1-amine]"
< 0.5,0.5 to 5,"Cc1nn2c(C3CCCN(Cc4ccc(Cl)cc4)C3)ccnc2c1CN1CCSCC1 (stereo not shown) [Example 167, 4-((7-(1-(4-Chlorobenzyl)piperidin-3-yl)-2-methylpyrazolo[1,5-a]pyrimidin-3-yl)methyl)thiomorpholine]"
< 0.5,0.5 to 5,"Cc1nn2c(C3CCCN(Cc4ccc(Cl)cc4)C3)ccnc2c1CN1CCCCC1 (stereo not shown) [Example 169, 7-(1-(4-Chlorobenzyl)piperidin-3-yl)-2-methyl-3-(piperidin-1-ylmethyl)pyrazolo[1,5-a]pyrimidine]"
< 0.5,< 0.5,"COCC1CCN(Cc2c(C)nn3c(C4CCCN(Cc5ccc(Cl)cc5)C4)ccnc23)CC1 (stereo not shown) [Example 170, 7-(1-(4-Chlorobenzyl)piperidin-3-yl)-3-((4-(methoxymethyl)piperidin-1-yl)methyl)-2-methylpyrazolo[1,5-a]pyrimidine]"
< 0.5,0.5 to 5,"Cc1nn2c(C3CCCN(Cc4ccc(Cl)cc4)C3)ccnc2c1CN1CCC(C(N)=O)CC1 (stereo not shown) [Example 171, 1-((7-(1-(4-Chlorobenzyl)piperidin-3-yl)-2-methylpyrazolo[1,5-a]pyrimidin-3-yl)methyl)piperidine-4-carboxamide]"
< 0.5,> 5,"Cc1nn2c(C3CCCN(Cc4ccc(Cl)cc4)C3)ccnc2c1CN1CCC(C#N)CC1 (stereo not shown) [Example 172, 1-((7-(1-(4-Chlorobenzyl)piperidin-3-yl)-2-methylpyrazolo[1,5-a]pyrimidin-3-yl)methyl)piperidine-4-carbonitrile]"
< 0.5,0.5 to 5,"Cc1nn2c(C3CCCN(Cc4ccc(Cl)cc4)C3)ccnc2c1CNCC1(F)CCOCC1 (stereo not shown) [Example 177, 1-(7-(1-(4-Chlorobenzyl)piperidin-3-yl)-2-methylpyrazolo[1,5-a]pyrimidin-3-yl)-N-((4-fluorotetrahydro-2H-pyran-4-yl)methyl)methanamine]"
< 0.5,0.5 to 5,"Cc1nn2c(C3CCCN(Cc4ccc(Cl)cc4)C3)ccnc2c1CNCCC1CCOCC1 (stereo not shown) [Example 178, N-((7-(1-(4-Chlorobenzyl)piperidin-3-yl)-2-methylpyrazolo[1,5-a]pyrimidin-3-yl)methyl)-2-(tetrahydro-2H-pyran-4-yl)ethan-1-amine]"
< 0.5,0.5 to 5,"CC(=O)N1CCC(CNCc2c(C)nn3c(C4CCCN(Cc5ccccc5)C4)ccnc23)CC1 (stereo not shown) [Example 180, 1-(4-((((7-(1-Benzylpiperidin-3-yl)-2-methylpyrazolo[1,5-a]pyrimidin-3-yl)methyl)amino)methyl)piperidin-1-yl)ethan-1-one]"
< 0.5,0.5 to 5,"Cc1nn2c(C3CCCN(Cc4cccc(F)c4)C3)ccnc2c1CNCC1CCOCC1 (stereo not shown) [Example 181, 1-(7-(1-(3-Fluorobenzyl)piperidin-3-yl)-2-methylpyrazolo[1,5-a]pyrimidin-3-yl)-N-((tetrahydro-2H-pyran-4-yl)methyl)methanamine]"
< 0.5,< 0.5,"Cc1nn2c(C3CCCN(Cc4ccc(F)c(F)c4)C3)ccnc2c1CNCC1CCOCC1 (stereo not shown) [Example 182, 1-(7-(1-(3,4-Difluorobenzyl)piperidin-3-yl)-2-methylpyrazolo[1,5-a]pyrimidin-3-yl)-N-((tetrahydro-2H-pyran-4-yl)methyl)methanamine]"
